Measurements published in US8722701B2, “1,2,3,4,5 6,7,8-octohydro-9-phenylacetamidoacridine, the preparation method and medical use thereof” (priority 2010, dated 2014).
Structures can show the parent of a compound that is named as a salt. Marks after values point to notes of the source that are not given here.

How the values were obtained:
cholinesterase = conditions: Chinese Patent No. ZL 03104541.3; result in words; cited from earlier work
[1] = tested on: ouabain-induced arrhythmia in guinea pigs; assay: Ouabain-induced arrhythmia in guinea pigs; assay type: in vivo, EWG/B guinea pigs; conditions: for Dosages of ouabain CA / Dosages of ouabain VF / Dosages of ouabain VP / Dosages of ouabain VT: ouabain infused 5 μg/min, n=6, x±s; for Antagonistic action against the arrhythmia induced by ouabain in guinea pigs: 100 and 200 mg/kg intragastric, result in words
Protocol: (§1) Models of experimental arrhythmia induced by aconitine and ouabain in rats and guinea pigs were constructed. The inventive compound and the hydrochloride thereof were administrated with dosages of 100 and 200 mg/kg, respectively. The positive medicament group was administrated with 10 mg/kg of Propranolol, and the control group was administrated with 0.5% carboxymethylcellulose sodium. Each group was administrated by gastric perfusion once. The occurrence times of ventricular premature contraction (VP), ventricular tachycardia (VT), ventricular fibrillation (VF) and cardiac arrest (CA) after administration of aconitine in rats were recorded; and the dosages of ouabain were also observed when VP, VT, VF and CA appeared.
Thirty-six guinea pigs were divided into 6 groups randomly: a control group, a positive medicament (Propranolol) group, high- and low-dosage groups (200 and 100 mg/kg) of the inventive compound and the hydrochloride thereof, respectively, 6 animals per group. Fifty minutes after intragastric administration, the animals of each groups were anaesthetized by injecting 10% chloral hydrate intraperitoneally and fixed in a supine position. After the external jugular vein was separated, intubation was performed and a constant-speed micro-infusion apparatus was installed. Then a type II lead normal electrocardiogram was recorded. After that, ouabain was infused via the external jugular vein at a constant rate of 5 μg/min, and the change of the electrocardiogram was observed. The dosages of ouabain when VP, VT, VF and CA occurred after administration of ouabain in the guinea pigs were recorded.
(§2) The experimental data were analyzed with the statistic software SPSS 10.0, and represented as x±s. The comparison among groups was analyzed by the intergroup comparison difference t test.

[2] = tested on: aconitine-induced arrhythmia in rats; assay: Aconitine-induced arrhythmia in rats; assay type: in vivo, Wistar rats; conditions: for Occurrence time CA / Occurrence time VF / Occurrence time VP / Occurrence time VT: 50 min before aconitine 20 μg/kg i.v., n=10, x±s; for Antagonistic action against the arrhythmia induced by aconitine in rats: 100 and 200 mg/kg intragastric, result in words
Protocol: as §1
Sixty Wistar rats were divided into 6 groups randomly: a control group, a positive medicament (Propranolol) group, high- and low-dosage groups (200 and 100 mg/kg) of the inventive compound and the hydrochloride thereof, respectively, 10 animals per group. Fifty minutes after intragastric administration, the animals of each groups were anaesthetized by injecting 10% chloral hydrate intraperitoneally and fixed in a supine position. A type II lead normal electrocardiogram was then recorded. After that, 20 μg/kg of aconitine was injected via sublingual vein, and the change of the electrocardiogram was observed. The occurrence times of ventricular premature contraction (VP), ventricular tachycardia (VT), ventricular fibrillation (VF) and cardiac arrest (CA) after administration of aconitine in the rats were recorded.
as §2

[3] = tested on: arrhythmia induced by coronary artery ligation in rats; assay: Arrhythmia induced by coronary artery ligation in rats; assay type: in vivo, Wistar rats; conditions: for Incidence rate of arrhythmia CA / Incidence rate of arrhythmia VF / Incidence rate of arrhythmia VT / Occurrence times CA / Occurrence times VF / Occurrence times VP / Occurrence times VT: rats, coronary artery ligation; for Occurrence times CA / Occurrence times VF / Occurrence times VP / Occurrence times VT: x±s
Protocol: Models of experimental arrhythmia induced by coronary artery ligation in rats were constructed. The inventive compound was administrated in a dose of 50, 100, 200 mg/kg, respectively. […] Each group wa administrated by gastric perfusion once. The occurrence times and the incidence rates of ventricular premature contraction (VP), ventricular tachycardia (VT), ventricular fibrillation […] and cardiac arrest (CA) after coronary artery ligation in rats were recorded.
The experimental data were analyzed with the statistic software SPSS 10.0, and represented as x±s. The intergroup comparison was analyzed by the intergroup difference comparison t test. The incidence rates were compared by χ^2 test.

[4] = background statement; result in words; cited from earlier work
[5] = 100 mg/kg intragastric, 100 mg/kg
[6] = 200 mg/kg intragastric, 200 mg/kg
[7] = 50 mg/kg by gastric perfusion once
[8] = 100 mg/kg by gastric perfusion once
[9] = 200 mg/kg by gastric perfusion once

Question: With `O=C(Cc1ccccc1)Nc1c2c(nc3c1CCCC3)CCCC2` (as salt: hydrochloride) [Hydrochloride of the inventive compound, hydrochloride of 1,2,3,4,5,6,7,8-octohydro-9-phenylacetamidoacridine] as the compound, how does the melting point read?
Answer: 231 to 234 °C

Question: With `O=C(Cc1ccccc1)Nc1c2c(nc3c1CCCC3)CCCC2` (hydrate or solvate) [Inventive compound, 1,2,3,4,5,6,7,8-octohydro-9-phenylacetamidoacridine] as the compound, how does the melting point read?
Answer: 234 to 236 °C

Question: Which “Inhibition activity for cholinesterase” value (cholinesterase) does the source give for `Nc1c2c(nc3c1CCCC3)CCCC2` [9-amino-1,2,3,4,5,6,7,8-octohydroacridine] here?
Answer: proved to have an inhibition activity for cholinesterase

Question: With `O=C(Cc1ccccc1)Nc1c2c(nc3c1CCCC3)CCCC2` [Hydrochloride of the inventive compound, hydrochloride of 1,2,3,4,5,6,7,8-octohydro-9-phenylacetamidoacridine] as the compound, how does the “Dosages of ouabain CA” value [1, 5] read?
Answer: 280.3 ± 41.5 µg/kg

Question: What about the “Dosages of ouabain VF” value [1, 5] of the same compound?
Answer: 235.3 ± 36.3 µg/kg

Question: What about the “Dosages of ouabain VP” value [1, 5] of the same compound?
Answer: 171.8 ± 38.4 µg/kg

Question: And the “Dosages of ouabain VT” value [1, 5]?
Answer: 189.7 ± 30.3 µg/kg

Question: And the “Dosages of ouabain CA” value [1, 6]?
Answer: 370.4 ± 66.7 µg/kg

Question: What about the “Dosages of ouabain VF” value [1, 6] of the same compound?
Answer: 298.7 ± 49.1 µg/kg

Question: What about the “Dosages of ouabain VP” value [1, 6] of the same compound?
Answer: 189.5 ± 25.4 µg/kg

Question: What about the “Dosages of ouabain VT” value [1, 6] of the same compound?
Answer: 230.4 ± 35.3 µg/kg

Question: And the “Antagonistic action against the arrhythmia induced by ouabain in guinea pigs” value [1]?
Answer: significant antagonistic actions

Question: What about the “Occurrence time CA” value [2, 5] of the same compound?
Answer: 907.2 ± 250.6 s

Question: And the “Occurrence time VF” value [2, 5]?
Answer: 640.4 ± 217.3 s

Question: What about the “Occurrence time VP” value [2, 5] of the same compound?
Answer: 17.3 ± 7.8 s

Question: What about the “Occurrence time VT” value [2, 5] of the same compound?
Answer: 84.4 ± 19.0 s

Question: And the “Occurrence time CA” value [2, 6]?
Answer: 911.2 ± 186.4 s

Question: And the “Occurrence time VF” value [2, 6]?
Answer: 660.2 ± 204.7 s

Question: And the “Occurrence time VP” value [2, 6]?
Answer: 22.6 ± 6.1 s

Question: And the “Occurrence time VT” value [2, 6]?
Answer: 98.6 ± 21.3 s

Question: And the “Antagonistic action against the arrhythmia induced by aconitine in rats” value [2]?
Answer: significant antagonistic actions

Question: What does the source list for `O=C(Cc1ccccc1)Nc1c2c(nc3c1CCCC3)CCCC2` [Inventive compound, 1,2,3,4,5,6,7,8-octohydro-9-phenylacetamidoacridine]?
Answer: Antagonistic action against the experimental arrhythmia induced by coronary artery ligation in rats ([3]; rats, 50, 100, 200 mg/kg by gastric perfusion, result in words): significant antagonistic action; Incidence rate of arrhythmia CA [3, 7]: 21.4%; Incidence rate of arrhythmia VF [3, 7]: 35.7%; Incidence rate of arrhythmia VT [3, 7]: 42.8%; Occurrence times CA [3, 7]: 1141.8 ± 161.9 s; Occurrence times VF [3, 7]: 930.5 ± 379.4 s; Occurrence times VP [3, 7]: 82.3 ± 79.0 s; Occurrence times VT [3, 7]: 773.8 ± 344.3 s; Incidence rate of arrhythmia CA [3, 8]: 14.3* %; Incidence rate of arrhythmia VF [3, 8]: 14.3* %; Incidence rate of arrhythmia VT [3, 8]: 28.6* %; Occurrence times CA [3, 8]: 1163.4 ± 124.6 s; Occurrence times VF [3, 8]: 1148.3 ± 193.6 s; Occurrence times VP [3, 8]: 90.1 ± 39.7 s; Occurrence times VT [3, 8]: 920.5 ± 270.6 s; Incidence rate of arrhythmia CA [3, 9]: 12.5* %; Incidence rate of arrhythmia VF [3, 9]: 12.5* %; Incidence rate of arrhythmia VT [3, 9]: 12.5** %; Occurrence times CA [3, 9]: 1176.4 ± 729.2 s; Occurrence times VF [3, 9]: 1115.0 ± 138.8 s; Occurrence times VP [3, 9]: 107.3 ± 67.9 s; Occurrence times VT [3, 9]: 1043.2 ± 247.1 s; Dosages of ouabain CA [1, 5]: 283.0 ± 46.5 µg/kg; Dosages of ouabain VF [1, 5]: 230.5 ± 46.4 µg/kg; Dosages of ouabain VP [1, 5]: 174.9 ± 41.7 µg/kg; Dosages of ouabain VT [1, 5]: 184.1 ± 28.8 µg/kg; Dosages of ouabain CA [1, 6]: 371.3 ± 69.6 µg/kg; Dosages of ouabain VF [1, 6]: 294.5 ± 51.9 µg/kg; Dosages of ouabain VP [1, 6]: 185.5 ± 24.8 µg/kg; Dosages of ouabain VT [1, 6]: 228.3 ± 36.6 µg/kg; Antagonistic action against the arrhythmia induced by ouabain in guinea pigs [1]: significant antagonistic actions; Occurrence time CA [2, 5]: 910.1 ± 276.5 s; Occurrence time VF [2, 5]: 621.6 ± 203.7 s; Occurrence time VP [2, 5]: 16.9 ± 8.3 s; Occurrence time VT [2, 5]: 82.7 ± 21.0 s; Occurrence time CA [2, 6]: 905.7 ± 170.3 s; Occurrence time VF [2, 6]: 650.4 ± 193.3 s; Occurrence time VP [2, 6]: 20.7 ± 6.9 s; Occurrence time VT [2, 6]: 95.6 ± 20.6 s; Antagonistic action against the arrhythmia induced by aconitine in rats [2]: significant antagonistic actions

Question: What does the source list for `CC(C)NCC(O)COc1cccc2ccccc12` (stereo not shown) [Propranolol, reference compound]?
Answer: Dosages of ouabain CA ([1]; 10 mg/kg intragastric): 390.6 ± 64.4 µg/kg; Dosages of ouabain VF ([1]; 10 mg/kg intragastric): 323.2 ± 71.4 µg/kg; Dosages of ouabain VP ([1]; 10 mg/kg intragastric): 201.3 ± 55.6 µg/kg; Dosages of ouabain VT ([1]; 10 mg/kg intragastric): 240.7 ± 48.78 µg/kg; Occurrence time CA ([2]; 10 mg/kg intragastric): 913.7 ± 208.6 s; Occurrence time VF ([2]; 10 mg/kg intragastric): 705.6 ± 233.2 s; Occurrence time VP ([2]; 10 mg/kg intragastric): 23.6 ± 6.9 s; Occurrence time VT ([2]; 10 mg/kg intragastric): 101.6 ± 32.5 s

Question: With `Nc1c2c(nc3ccccc13)CCCC2` [Tacrine, 9-amino-1,2,3,4-tetrahydroacridine] as the compound, how does the Hepatotoxicity [4] read?
Answer: has a hepatotoxicity
